Laboratory results as given in BindingDB's records for doi:10.7270/Q2WW7G03 (The Scripps Research Institute Molecular Screening Center, 2007).

Molecular target: T1, 5-hydroxytryptamine receptor 1A (Homo sapiens, UniProt P08908)
T1 sequence (P08908 whole entry): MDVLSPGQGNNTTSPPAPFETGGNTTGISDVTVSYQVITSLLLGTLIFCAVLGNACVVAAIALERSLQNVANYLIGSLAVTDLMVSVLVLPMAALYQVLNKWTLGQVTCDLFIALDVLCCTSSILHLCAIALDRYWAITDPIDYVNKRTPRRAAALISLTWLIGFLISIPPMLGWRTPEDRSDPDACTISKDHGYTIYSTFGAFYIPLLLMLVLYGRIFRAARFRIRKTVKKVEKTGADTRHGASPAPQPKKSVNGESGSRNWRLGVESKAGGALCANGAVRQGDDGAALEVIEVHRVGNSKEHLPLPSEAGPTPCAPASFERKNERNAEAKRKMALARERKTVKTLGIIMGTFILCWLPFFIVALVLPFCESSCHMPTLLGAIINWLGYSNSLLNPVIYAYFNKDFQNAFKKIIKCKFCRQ
Assay: serotonin 1A receptor activation, dose response (AID 718)
Conditions: pH 7.4; 23 °C

EC50 [µM]	SMILES
50	CN1CCN(C(N=O)c2nonc2N)CC1 (stereo not drawn)
50	Cn1cc(C(Cc2ccccc2)N=O)c2ccccc21 (stereo not drawn) [1-(1-methyl-3-indolyl)-2-phenylethanone oxime]
50	CCOC(=O)C1C(C)=NC(=O)NC1c1ccc(OCC(=O)Nc2ccccc2)c(OC)c1 (stereo not drawn) [SMR000093032]
